Experimental data: publication PMC7973766, “Characterization of zebrafish GABAA receptor subunits” (Scientific Reports, 2021)

Assays:
Format in all cases: cell-based
[1] = molecular target: T1, zebrafish β1 homopentameric GABAA receptor (Danio rerio, UniProt F1QPW7); experiment: two-electrode voltage clamp, Xenopus oocytes, GABA-evoked current; settings: agonist at 10 mM only; -50 mV, pH 7.5
T1 construct: gene gabrb1; homopentamer
T1 sequence (F1QPW7 29-484): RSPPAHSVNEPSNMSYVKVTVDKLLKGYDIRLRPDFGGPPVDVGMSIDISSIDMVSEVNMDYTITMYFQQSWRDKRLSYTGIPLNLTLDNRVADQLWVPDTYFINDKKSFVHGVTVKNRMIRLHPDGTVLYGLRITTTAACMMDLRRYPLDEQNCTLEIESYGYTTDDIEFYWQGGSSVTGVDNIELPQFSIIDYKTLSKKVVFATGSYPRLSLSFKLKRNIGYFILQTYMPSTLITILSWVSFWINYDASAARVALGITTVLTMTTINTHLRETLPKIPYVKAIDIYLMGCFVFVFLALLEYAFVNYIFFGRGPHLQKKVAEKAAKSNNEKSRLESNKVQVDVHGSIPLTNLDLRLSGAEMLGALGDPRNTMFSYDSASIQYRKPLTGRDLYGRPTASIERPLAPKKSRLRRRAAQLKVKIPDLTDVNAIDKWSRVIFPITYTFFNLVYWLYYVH

[2] = molecular target: T2, zebrafish β3 homopentameric GABAA receptor (Danio rerio, UniProt A0A0R4ILP2); experiment: as above; settings: agonist at 10 mM only; -50 mV, pH 7.5
T2 construct: gene gabrb3; homopentamer
T2 sequence (A0A0R4ILP2 26-498): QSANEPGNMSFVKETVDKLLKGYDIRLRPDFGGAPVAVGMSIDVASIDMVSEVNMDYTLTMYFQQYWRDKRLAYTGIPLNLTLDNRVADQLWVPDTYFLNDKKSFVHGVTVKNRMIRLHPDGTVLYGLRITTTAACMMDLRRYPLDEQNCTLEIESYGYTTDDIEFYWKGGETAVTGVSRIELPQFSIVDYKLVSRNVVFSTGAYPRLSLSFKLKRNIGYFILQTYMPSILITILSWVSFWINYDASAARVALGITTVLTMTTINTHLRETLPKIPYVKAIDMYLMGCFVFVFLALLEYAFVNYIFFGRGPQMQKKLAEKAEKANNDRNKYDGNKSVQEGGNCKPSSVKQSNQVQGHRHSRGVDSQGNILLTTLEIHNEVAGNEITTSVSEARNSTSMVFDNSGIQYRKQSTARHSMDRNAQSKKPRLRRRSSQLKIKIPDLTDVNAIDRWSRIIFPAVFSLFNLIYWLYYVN

[3] = molecular target: T3, zebrafish β4 homopentameric GABAA receptor (Danio rerio, UniProt A0A2R8QJR5); experiment: as above; settings: agonist at 10 mM only; -50 mV, pH 7.5
T3 construct: gene gabrb4; homopentamer
T3 sequence (A0A2R8QJR5 26-482): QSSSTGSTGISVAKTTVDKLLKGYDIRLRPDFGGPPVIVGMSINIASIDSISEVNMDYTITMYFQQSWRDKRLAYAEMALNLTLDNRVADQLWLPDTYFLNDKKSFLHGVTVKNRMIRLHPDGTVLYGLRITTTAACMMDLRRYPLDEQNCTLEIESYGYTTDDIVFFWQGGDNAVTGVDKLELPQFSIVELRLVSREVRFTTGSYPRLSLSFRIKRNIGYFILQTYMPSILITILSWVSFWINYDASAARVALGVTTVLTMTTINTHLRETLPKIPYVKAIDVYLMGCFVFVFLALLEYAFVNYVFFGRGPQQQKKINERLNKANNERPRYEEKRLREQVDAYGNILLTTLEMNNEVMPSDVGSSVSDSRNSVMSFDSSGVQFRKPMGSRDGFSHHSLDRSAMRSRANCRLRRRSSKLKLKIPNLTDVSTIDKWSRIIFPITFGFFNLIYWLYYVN

[4] = molecular target: T2, zebrafish β3 homopentameric GABAA receptor; experiment: two-electrode voltage clamp, Xenopus oocytes, etomidate-evoked current

| SMILES | two-electrode voltage clamp, Xenopus oocytes, GABA-evoked current [1] | two-electrode voltage clamp, Xenopus oocytes, GABA-evoked current [2] | two-electrode voltage clamp, Xenopus oocytes, GABA-evoked current [3] | EC50 [4] |
| --- | --- | --- | --- | --- |
| NCCCC(=O)O [GABA] | either single β subunit yielded small currents | either single β subunit yielded small currents | either single β subunit yielded small currents |  |
| CCOC(=O)c1cncn1[C@H](C)c1ccccc1 [etomidate] |  |  |  | 30.3 ± 5.7 µM |
